The text below walks through data of patent US20230398130A1, “METHODS AND COMPOSITIONS FOR DIFFERENTIATING STEM CELLS” (Massachusetts Institute of Technology, priority 2020, published 2023).

Experiment [1] concerns ISC-enriched organoids. Put plainly: Primary screen, 384-well 2.5-D organoid differentiation (ENR+CD, 6 days): carbachol-induced lysozyme secretion (LYZ.S). In kind it is cell-based, murine. The note with it: primary screen, FC vs plate median. From the text:
(§1) High-throughput screening.

In experiment [2] the test system is ISC-enriched organoids. Put plainly: Primary screen, 384-well 2.5-D organoid differentiation (ENR+CD, 6 days): basal lysozyme secretion (LYZ.NS). In kind it is cell-based, murine. To be noted: primary screen; for Dose.FC.LYZ.NS: FC vs plate median; for Z.LYZ.NS: standard z score.
Excerpt: as §1

The test system of experiment [3] is ISC-enriched organoids. Put plainly: Primary screen, 384-well 2.5-D organoid differentiation (ENR+CD, 6 days, Target Selective Inhibitor Library, vs whole-plate median): ATP (CellTiter-Glo 3D, CTG). To be noted: primary screen; for Dose.FC.CTG: FC vs plate median; for Z.CTG: standard z score. On the technique in general: In ATP-based viability assays light output follows the ATP content of the culture.

Take `CCc1cc(Nc2nccc(-c3c(-c4ccc(OC)c(C(=O)Nc5c(F)cccc5F)c4)nc4ccccn34)n2)c(OC)cc1N1CCC(N2CCN(S(C)(=O)=O)CC2)CC1` [GSK1904529A]: the Dose.FC.LYZ.S in experiment [1] (Dose 0.08 uM) was 0.133 log 2 fold change; in experiment [1] (Dose 0.40 uM) it was −0.047 log 2 fold change; in experiment [1] (Dose 2.00 uM), −0.225 log 2 fold change; in experiment [1] (Dose 10.00 uM) it was −0.276 log 2 fold change. Also, the Dose.FC.LYZ.NS in experiment [2] (Dose 0.08 uM) is recorded as 0.102 log 2 fold change; in experiment [2] (Dose 0.40 uM), 0.112 log 2 fold change; in experiment [2] (Dose 2.00 uM) it was −0.179 log 2 fold change; in experiment [2] (Dose 10.00 uM), −0.163 log 2 fold change. Further, the Z.LYZ.NS in experiment [2] (Dose 0.08 uM) was 0.890; in experiment [2] (Dose 0.40 uM), 0.977; in experiment [2] (Dose 2.00 uM) it was −1.557; in experiment [2] (Dose 10.00 uM), −1.419. For the same compound, the Dose.FC.CTG in experiment [3] (Dose 0.08 uM) is given as 0.202 log 2 fold change; in experiment [3] (Dose 0.40 uM) it was −0.071 log 2 fold change; in experiment [3] (Dose 2.00 uM) it was −0.570 log 2 fold change; in experiment [3] (Dose 10.00 uM), −0.691 log 2 fold change. Also, the Z.CTG is 0.484 in experiment [3] (Dose 0.08 uM), −0.170 in experiment [3] (Dose 0.40 uM), −1.361 in experiment [3] (Dose 2.00 uM) and −1.649 in experiment [3] (Dose 10.00 uM).
Turning to `Cc1cccc(CC(=O)N2CCc3c2ccc(-c2cn(C)c4ncnc(N)c24)c3F)n1` [GSK2656157], the Dose.FC.LYZ.S in experiment [1] (Dose 0.08 uM) is reported as −0.008 log 2 fold change; in experiment [1] (Dose 0.40 uM) it was 0.060 log 2 fold change; in experiment [1] (Dose 2.00 uM) it was −0.020 log 2 fold change; in experiment [1] (Dose 10.00 uM), 0.090 log 2 fold change. Moreover, the Dose.FC.LYZ.NS in experiment [2] (Dose 0.08 uM) is recorded as −0.031 log 2 fold change; in experiment [2] (Dose 0.40 uM), −0.045 log 2 fold change; in experiment [2] (Dose 2.00 uM) it was −0.033 log 2 fold change; in experiment [2] (Dose 10.00 uM), −0.012 log 2 fold change. For the same compound, the Z.LYZ.NS in experiment [2] (Dose 0.08 uM) is given as −0.267; in experiment [2] (Dose 0.40 uM), −0.396; in experiment [2] (Dose 2.00 uM), −0.291; in experiment [2] (Dose 10.00 uM), −0.102. The Dose.FC.CTG in experiment [3] (Dose 0.08 uM) was 0.068 log 2 fold change; in experiment [3] (Dose 0.40 uM), 0.115 log 2 fold change; in experiment [3] (Dose 2.00 uM), 0.083 log 2 fold change; in experiment [3] (Dose 10.00 uM) it was 0.119 log 2 fold change. Also, the Z.CTG in experiment [3] (Dose 0.08 uM) turned out to be 0.162; in experiment [3] (Dose 0.40 uM), 0.274; in experiment [3] (Dose 2.00 uM) it was 0.197; in experiment [3] (Dose 10.00 uM), 0.284.
`CCOC(=O)CCNc1cc(N2CCc3ccccc3CC2)nc(-c2ccccn2)n1.Cl` [GSK J4 HCl]: the Dose.FC.LYZ.S in experiment [1] (Dose 0.08 uM) is listed as 0.086 log 2 fold change; in experiment [1] (Dose 0.40 uM), 0.109 log 2 fold change; in experiment [1] (Dose 2.00 uM), 0.041 log 2 fold change; in experiment [1] (Dose 10.00 uM), −0.002 log 2 fold change. Also, the Dose.FC.LYZ.NS in experiment [2] (Dose 0.08 uM) is reported as 0.058 log 2 fold change; in experiment [2] (Dose 0.40 uM) it was 0.050 log 2 fold change; in experiment [2] (Dose 2.00 uM), 0.018 log 2 fold change; in experiment [2] (Dose 10.00 uM), −0.001 log 2 fold change. For the same compound, the Z.LYZ.NS in experiment [2] (Dose 0.08 uM) is 0.508; in experiment [2] (Dose 0.40 uM), 0.433; in experiment [2] (Dose 2.00 uM) it was 0.153; in experiment [2] (Dose 10.00 uM), −0.006. Moreover, the Dose.FC.CTG in experiment [3] (Dose 0.08 uM) came to 0.124 log 2 fold change; in experiment [3] (Dose 0.40 uM), 0.099 log 2 fold change; in experiment [3] (Dose 2.00 uM), 0.002 log 2 fold change; in experiment [3] (Dose 10.00 uM), 0.233 log 2 fold change. For the same compound, the Z.CTG in experiment [3] (Dose 0.08 uM) stood at 0.297; in experiment [3] (Dose 0.40 uM), 0.237; in experiment [3] (Dose 2.00 uM) it was 0.006; in experiment [3] (Dose 10.00 uM) it was 0.558.
With `Cc1cc(SCc2sc(-c3ccc(C(F)(F)F)c(F)c3)nc2C)ccc1OCC(=O)O` [GW0742], the Dose.FC.LYZ.S in experiment [1] (Dose 0.08 uM) is reported as 0.048 log 2 fold change; in experiment [1] (Dose 0.40 uM), 0.106 log 2 fold change; in experiment [1] (Dose 2.00 uM), 0.014 log 2 fold change; in experiment [1] (Dose 10.00 uM) it was −0.183 log 2 fold change. The Dose.FC.LYZ.NS in experiment [2] (Dose 0.08 uM) is recorded as 0.052 log 2 fold change; in experiment [2] (Dose 0.40 uM), 0.045 log 2 fold change; in experiment [2] (Dose 2.00 uM), 0.026 log 2 fold change; in experiment [2] (Dose 10.00 uM), −0.152 log 2 fold change. Further, the Z.LYZ.NS in experiment [2] (Dose 0.08 uM) is on record as 0.454; in experiment [2] (Dose 0.40 uM), 0.390; in experiment [2] (Dose 2.00 uM) it was 0.231; in experiment [2] (Dose 10.00 uM), −1.322. The Dose.FC.CTG in experiment [3] (Dose 0.08 uM) is on record as −0.751 log 2 fold change; in experiment [3] (Dose 0.40 uM), −0.489 log 2 fold change; in experiment [3] (Dose 2.00 uM), −0.249 log 2 fold change; in experiment [3] (Dose 10.00 uM), −0.451 log 2 fold change. Further, the Z.CTG in experiment [3] (Dose 0.08 uM) is on record as −1.794; in experiment [3] (Dose 0.40 uM) it was −1.167; in experiment [3] (Dose 2.00 uM), −0.596; in experiment [3] (Dose 10.00 uM) it was −1.078.
For `COc1ccc(COc2ccc(Cc3cnc(N)nc3N)cc2OC)cc1` [GW2580], the Dose.FC.LYZ.S in experiment [1] (Dose 0.08 uM) is reported as −0.013 log 2 fold change; in experiment [1] (Dose 0.40 uM) it was 0.020 log 2 fold change; in experiment [1] (Dose 2.00 uM), −0.060 log 2 fold change; in experiment [1] (Dose 10.00 uM) it was −0.026 log 2 fold change. Moreover, the Dose.FC.LYZ.NS in experiment [2] (Dose 0.08 uM) is given as 0.006 log 2 fold change; in experiment [2] (Dose 0.40 uM), 0.014 log 2 fold change; in experiment [2] (Dose 2.00 uM), −0.060 log 2 fold change; in experiment [2] (Dose 10.00 uM), −0.018 log 2 fold change. Moreover, the Z.LYZ.NS in experiment [2] (Dose 0.08 uM) is 0.056; in experiment [2] (Dose 0.40 uM) it was 0.118; in experiment [2] (Dose 2.00 uM) it was −0.525; in experiment [2] (Dose 10.00 uM), −0.158. The Dose.FC.CTG is listed as −0.042 log 2 fold change in experiment [3] (Dose 0.08 uM), −0.284 log 2 fold change in experiment [3] (Dose 0.40 uM), 0.029 log 2 fold change in experiment [3] (Dose 2.00 uM) and −0.038 log 2 fold change in experiment [3] (Dose 10.00 uM). Besides, the Z.CTG is listed as −0.101 in experiment [3] (Dose 0.08 uM), −0.678 in experiment [3] (Dose 0.40 uM), 0.068 in experiment [3] (Dose 2.00 uM) and −0.091 in experiment [3] (Dose 10.00 uM).
Take `Cl.O=C(O)Cc1cccc(OCCCN(Cc2cccc(C(F)(F)F)c2Cl)CC(c2ccccc2)c2ccccc2)c1` [GW3965 HCl]: the Dose.FC.LYZ.S in experiment [1] (Dose 0.08 uM) was 0.091 log 2 fold change; in experiment [1] (Dose 0.40 uM) it was 0.074 log 2 fold change; in experiment [1] (Dose 2.00 uM) it was 0.179 log 2 fold change; in experiment [1] (Dose 10.00 uM), −0.047 log 2 fold change. Also, the Dose.FC.LYZ.NS in experiment [2] (Dose 0.08 uM) is on record as 0.059 log 2 fold change; in experiment [2] (Dose 0.40 uM), 0.002 log 2 fold change; in experiment [2] (Dose 2.00 uM), 0.077 log 2 fold change; in experiment [2] (Dose 10.00 uM), −0.009 log 2 fold change. The Z.LYZ.NS in experiment [2] (Dose 0.08 uM) was 0.516; in experiment [2] (Dose 0.40 uM) it was 0.013; in experiment [2] (Dose 2.00 uM) it was 0.673; in experiment [2] (Dose 10.00 uM) it was −0.080. Moreover, the Dose.FC.CTG in experiment [3] (Dose 0.08 uM) is reported as 0.138 log 2 fold change; in experiment [3] (Dose 0.40 uM) it was 0.201 log 2 fold change; in experiment [3] (Dose 2.00 uM), 0.229 log 2 fold change; in experiment [3] (Dose 10.00 uM) it was −0.078 log 2 fold change. In addition, the Z.CTG in experiment [3] (Dose 0.08 uM) was 0.330; in experiment [3] (Dose 0.40 uM), 0.481; in experiment [3] (Dose 2.00 uM), 0.546; in experiment [3] (Dose 10.00 uM) it was −0.186.
As to `CC(C)c1onc(-c2c(Cl)cccc2Cl)c1COc1ccc(/C=C/c2cccc(C(=O)O)c2)c(Cl)c1` [GW4064], the Dose.FC.LYZ.S in experiment [1] (Dose 0.08 uM) is 0.028 log 2 fold change; in experiment [1] (Dose 0.40 uM) it was 0.097 log 2 fold change; in experiment [1] (Dose 2.00 uM), 0.000 log 2 fold change; in experiment [1] (Dose 10.00 uM), −0.071 log 2 fold change. The Dose.FC.LYZ.NS in experiment [2] (Dose 0.08 uM) was 0.170 log 2 fold change; in experiment [2] (Dose 0.40 uM), −0.022 log 2 fold change; in experiment [2] (Dose 2.00 uM), 0.022 log 2 fold change; in experiment [2] (Dose 10.00 uM), −0.059 log 2 fold change. Further, the Z.LYZ.NS in experiment [2] (Dose 0.08 uM) was 1.476; in experiment [2] (Dose 0.40 uM) it was −0.194; in experiment [2] (Dose 2.00 uM) it was 0.196; in experiment [2] (Dose 10.00 uM) it was −0.516. Further, the Dose.FC.CTG in experiment [3] (Dose 0.08 uM) is reported as −0.134 log 2 fold change; in experiment [3] (Dose 0.40 uM) it was 0.140 log 2 fold change; in experiment [3] (Dose 2.00 uM) it was −0.145 log 2 fold change; in experiment [3] (Dose 10.00 uM), −0.157 log 2 fold change. Also, the Z.CTG in experiment [3] (Dose 0.08 uM) is listed as −0.320; in experiment [3] (Dose 0.40 uM), 0.334; in experiment [3] (Dose 2.00 uM) it was −0.346; in experiment [3] (Dose 10.00 uM), −0.375.
